Test results as given in PMC7468108 (Communications Biology, 2020).

Tests used:
hIAPP = target: T1, hIAPP (Homo sapiens, UniProt P10997); test: ThT-binding assay, inhibition of hIAPP aggregation; format: biochemical; settings: for Normalized ThT fluorescence: hIAPP (10 µM) : molecule 1:5, average of three data sets; for % amyloid of hIAPP: hIAPP 10 µM
T1 construct: hIAPP is a 37-amino acid neuroendocrine peptide hormone; purchased Peptide 2.0 (USA)
T1 sequence (P10997 34-70 limits assumed): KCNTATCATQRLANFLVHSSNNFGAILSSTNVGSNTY
Experimental: A similar inhibitory effect by the hybrid molecules was found toward hIAPP aggregation. […] Upon co-incubation of hIAPP with the hybrid molecules, a dose-response inhibition of hIAPP fibril formation was observed (Fig. 2d, e and Supplementary Fig. 3). […] Also, for IAPP, the marginally stronger inhibitory effect of WGalNAc was statistically significant (Supplementary Fig. 2b).
The resulting thin films were dissolved in PBS (100 mM, pH 7.4) and sonicated for 5 min to get a stock concentration of 50 µM, which immediately diluted to required concentration for an experiment. Stock solutions of ThT (4 mM in PBS) and hybrid molecules (10 mM in PBS) were prepared. All the stock solutions were diluted according to the requirement.
The experiment was performed according to the previous report. […] Kinetics fluorescence data were collected at 37 °C in triplicate using Infinite M200 microplate reader (Tecan, Switzerland), with measurements acquired at 15 min intervals. Excitation and emission wavelengths were set at 440 nm and 485 nm, respectively.

Aβ42 = target: T2, Aβ42 (Homo sapiens, UniProt P05067); test: Congo red birefringence of Aβ42 fibrils formed with the tested molecules; settings: 5-fold excess of compound
T2 construct: purchased rPeptide (USA)
Description: These fibrils also generated the amyloid specific gold-green birefringence upon staining with Congo red (Fig. 3, bottom panel and Supplementary Fig. 6)[74].

T2 sequence (P05067 672-713 limits assumed): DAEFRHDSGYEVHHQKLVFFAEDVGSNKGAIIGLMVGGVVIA

NC(Cc1c[nH]c2ccccc12)C(=O)NC(Cc1c[nH]c2ccccc12)C(=O)O (stereo not drawn) [WW]
Normalized ThT fluorescence (hIAPP; Time 0 h): 29.978 | Normalized ThT fluorescence (hIAPP; Time 0.25 h): -2.428 | Normalized ThT fluorescence (hIAPP; Time 0.5 h): 312.254 | Normalized ThT fluorescence (hIAPP; Time 0.75 h): 629.363 | Normalized ThT fluorescence (hIAPP; Time 1 h): 980.330 | Normalized ThT fluorescence (hIAPP; Time 1.25 h): 1609.153 | Normalized ThT fluorescence (hIAPP; Time 1.5 h): 2335.279 | Normalized ThT fluorescence (hIAPP; Time 1.75 h): 2857.634 | Normalized ThT fluorescence (hIAPP; Time 2 h): 3166.885 | Normalized ThT fluorescence (hIAPP; Time 2.25 h): 3521.809 | Normalized ThT fluorescence (hIAPP; Time 2.5 h): 3762.743 | Normalized ThT fluorescence (hIAPP; Time 2.75 h): 4063.191 | Normalized ThT fluorescence (hIAPP; Time 3 h): 4256.338 | Normalized ThT fluorescence (hIAPP; Time 3.25 h): 4441.516 | Normalized ThT fluorescence (hIAPP; Time 3.5 h): 4588.861 | Normalized ThT fluorescence (hIAPP; Time 3.75 h): 4641.496 | Normalized ThT fluorescence (hIAPP; Time 4 h): 4783.902 | Normalized ThT fluorescence (hIAPP; Time 4.25 h): 5155.140 | Normalized ThT fluorescence (hIAPP; Time 4.5 h): 5083.691 | Normalized ThT fluorescence (hIAPP; Time 4.75 h): 5147.945 | Normalized ThT fluorescence (hIAPP; Time 5 h): 5383.622 | Normalized ThT fluorescence (hIAPP; Time 5.25 h): 5413.206 | Normalized ThT fluorescence (hIAPP; Time 5.5 h): 5636.242 | Normalized ThT fluorescence (hIAPP; Time 5.75 h): 5718.561 | Normalized ThT fluorescence (hIAPP; Time 6 h): 5762.151 | Normalized ThT fluorescence (hIAPP; Time 6.25 h): 5998.572 | Normalized ThT fluorescence (hIAPP; Time 6.5 h): 6267.216 | Normalized ThT fluorescence (hIAPP; Time 6.75 h): 6187.949 | Normalized ThT fluorescence (hIAPP; Time 7 h): 6251.809 | Normalized ThT fluorescence (hIAPP; Time 7.25 h): 6421.160 | Normalized ThT fluorescence (hIAPP; Time 7.5 h): 6518.393 | Normalized ThT fluorescence (hIAPP; Time 7.75 h): 6603.373 | Normalized ThT fluorescence (hIAPP; Time 8 h): 6737.364 | Normalized ThT fluorescence (hIAPP; Time 8.25 h): 6750.786 | Normalized ThT fluorescence (hIAPP; Time 8.5 h): 6792.841 | Normalized ThT fluorescence (hIAPP; Time 8.75 h): 6865.131 | Normalized ThT fluorescence (hIAPP; Time 9 h): 6824.556 | Normalized ThT fluorescence (hIAPP; Time 9.25 h): 6905.238 | Normalized ThT fluorescence (hIAPP; Time 9.5 h): 6910.878 | Normalized ThT fluorescence (hIAPP; Time 9.75 h): 6951.940 | Normalized ThT fluorescence (hIAPP; Time 10 h): 6938.219 | Normalized ThT fluorescence (hIAPP; Time 10.25 h): 6978.295 | Normalized ThT fluorescence (hIAPP; Time 10.5 h): 7036.631 | Normalized ThT fluorescence (hIAPP; Time 10.75 h): 7131.130 | Normalized ThT fluorescence (hIAPP; Time 11 h): 7205.208 | Normalized ThT fluorescence (hIAPP; Time 11.25 h): 7201.975 | Normalized ThT fluorescence (hIAPP; Time 11.5 h): 7247.388 | Normalized ThT fluorescence (hIAPP; Time 11.75 h): 7228.342 | Normalized ThT fluorescence (hIAPP; Time 12 h): 7216.738 | Normalized ThT fluorescence (hIAPP; Time 12.25 h): 7265.266 | Normalized ThT fluorescence (hIAPP; Time 12.5 h): 7198.053 | Normalized ThT fluorescence (hIAPP; Time 12.75 h): 7266.511 | Normalized ThT fluorescence (hIAPP; Time 13 h): 7230.088 | Normalized ThT fluorescence (hIAPP; Time 13.25 h): 7204.082 | Normalized ThT fluorescence (hIAPP; Time 13.5 h): 7254.393 | Normalized ThT fluorescence (hIAPP; Time 13.75 h): 7295.955 | Normalized ThT fluorescence (hIAPP; Time 14 h): 7250.976 | Normalized ThT fluorescence (hIAPP; Time 14.25 h): 7276.851 | Normalized ThT fluorescence (hIAPP; Time 14.5 h): 7406.119 | Normalized ThT fluorescence (hIAPP; Time 14.75 h): 7447.878 | Normalized ThT fluorescence (hIAPP; Time 15 h): 7365.784 | % amyloid of hIAPP (hIAPP; molar ratio hIAPP:tested molecule 1:1): 105.600% | % amyloid of hIAPP (hIAPP; molar ratio hIAPP:tested molecule 1:5): 115.433% | % amyloid of hIAPP (hIAPP; molar ratio hIAPP:tested molecule 5:1): 99.082% | inhibition of hIAPP fibril formation (ThT), in words (hIAPP; molar ratios 5:1, 1:1, 1:5): No inhibitory effect | Congo red birefringence of Aβ42, in words (Aβ42): intense gold-green birefringence
